One block for each molecule: values may come before it.
Columns and labels:
[1] = Negative inotropic activity assessed as decrease in developed tension in isolated guinea pig left atrium; assay type: functional, tissue-based; settings: Cavia porcellus, Cardiac atrium
[2] = Negative chronotropic activity assessed as decrease in atrial rate in isolated guinea pig right atrium at 100 uM relative to control; assay type: functional, Cavia porcellus, Cardiac atrium; design: scale not given: the % may be the effect or the level left
[3] = test system: Aorta; assay: Inhibition of calcium-induced contraction of potassium ion depolarized guinea pig aortic strips at 100 uM; assay type: functional; settings: Cavia porcellus
[4] = Negative inotropic activity assessed as decrease in developed tension in isolated guinea pig left atrium at 1 uM relative to control; assay type: functional, Cavia porcellus, Cardiac atrium; design: scale not given: the % may be the effect or the level left
[5] = Activity against alternating current-induced arrhythmia in guinea pig left atrium at 100 uM; assay type: functional, Cavia porcellus, Cardiac atrium
[6] = Displacement of [3H]batrachotoxin from sodium channel in rat brain; assay type: tissue-based
[7] = Activity against alternating current-induced arrhythmia in guinea pig left atrium at 50 uM; assay type: functional, Cavia porcellus, Cardiac atrium
[8] = Activity against alternating current-induced arrhythmia in guinea pig left atrium; assay type: functional, tissue-based; settings: Cavia porcellus, Cardiac atrium
[9] = tissue or blood; settings: Cavia porcellus, Cardiac atrium
[10] = Negative chronotropic activity assessed as decrease in atrial rate in isolated guinea pig right atrium at 50 uM relative to control; assay type: functional, Cavia porcellus, Cardiac atrium; design: scale not given: the % may be the effect or the level left
[11] = Negative inotropic activity assessed as decrease in developed tension in isolated guinea pig left atrium at 50 uM relative to control; assay type: functional, Cavia porcellus, Cardiac atrium; design: scale not given: the % may be the effect or the level left
[12] = test system: Heart; assay: Heart rate in spontaneously beating Langendorff-perfused guinea pig heart at 0.1uM; assay type: functional, Cavia porcellus; design: unit: beats/min
[13] = test system: Heart; assay: Heart rate in spontaneously beating Langendorff-perfused guinea pig heart at 1 uM; assay type: functional, Cavia porcellus; design: unit not given here
[14] = test system: Heart; assay: Atrioventricular conduction time in spontaneously beating Langendorff-perfused guinea pig heart at 0.1 uM; assay type: functional, Cavia porcellus
[15] = test system: Heart; assay: Atrioventricular conduction time in spontaneously beating Langendorff-perfused guinea pig heart at 1 nM; assay type: functional, Cavia porcellus
[16] = test system: Heart; assay: Heart rate in spontaneously beating Langendorff-perfused guinea pig heart at 10 nM; assay type: functional, Cavia porcellus; design: unit not given here
[17] = test system: Heart; assay: Atrioventricular conduction time in spontaneously beating Langendorff-perfused guinea pig heart at 10 uM; assay type: functional, Cavia porcellus
[18] = test system: Heart; assay: Ventricular action potential duration in spontaneously beating Langendorff-perfused guinea pig heart at 10 nM; assay type: functional, Cavia porcellus
[19] = test system: Heart; assay: Intraventricular conduction time in spontaneously beating Langendorff-perfused guinea pig heart at 10 nM; assay type: functional, Cavia porcellus
[20] = test system: Heart; assay: Heart rate in spontaneously beating Langendorff-perfused guinea pig heart at 10 uM; assay type: functional, Cavia porcellus; design: unit not given here
[21] = test system: Heart; assay: Ventricular action potential duration in spontaneously beating Langendorff-perfused guinea pig heart at 1 uM; assay type: functional, Cavia porcellus
[22] = test system: Heart; assay: Ventricular action potential duration in spontaneously beating Langendorff-perfused guinea pig heart at 1 nM; assay type: functional, Cavia porcellus
[23] = test system: Heart; assay: Atrioventricular conduction time in spontaneously beating Langendorff-perfused guinea pig heart at 1 uM; assay type: functional, Cavia porcellus
[24] = Negative inotropic activity assessed as decrease in developed tension in isolated guinea pig left atrium at 5 uM relative to control; assay type: functional, Cavia porcellus, Cardiac atrium; design: scale not given: the % may be the effect or the level left
[25] = test system: Heart; assay: Heart rate in spontaneously beating Langendorff-perfused guinea pig heart at 1 nM; assay type: functional, Cavia porcellus; design: unit not given here
[26] = test system: Heart; assay: Intraventricular conduction time in spontaneously beating Langendorff-perfused guinea pig heart at 1 nM; assay type: functional, Cavia porcellus
[27] = test system: Heart; assay: Intraventricular conduction time in spontaneously beating Langendorff-perfused guinea pig heart at 10 uM; assay type: functional, Cavia porcellus
[28] = test system: Heart; assay: Atrioventricular conduction time in spontaneously beating Langendorff-perfused guinea pig heart at 10 nM; assay type: functional, Cavia porcellus
[29] = test system: Heart; assay: Ventricular action potential duration in spontaneously beating Langendorff-perfused guinea pig heart at 10 uM; assay type: functional, Cavia porcellus
[30] = test system: Heart; assay: Intraventricular conduction time in spontaneously beating Langendorff-perfused guinea pig heart at 0.1 uM; assay type: functional, Cavia porcellus
[31] = test system: Heart; assay: Intraventricular conduction time in spontaneously beating Langendorff-perfused guinea pig heart at 1 uM; assay type: functional, Cavia porcellus
[32] = test system: Heart; assay: Ventricular action potential duration in spontaneously beating Langendorff-perfused guinea pig heart at 0.1 uM; assay type: functional, Cavia porcellus
[33] = Positive chronotropic activity in isolated guinea pig right atrium at 5 uM relative to control; assay type: functional, Cavia porcellus, Cardiac atrium
[34] = Negative inotropic activity assessed as decrease in developed tension in isolated guinea pig left atrium at 10 uM relative to control; assay type: functional, Cavia porcellus, Cardiac atrium; design: scale not given: the % may be the effect or the level left
[35] = Negative inotropic activity assessed as decrease in developed tension in isolated guinea pig left atrium at 100 uM relative to control; assay type: functional, Cavia porcellus, Cardiac atrium; design: scale not given: the % may be the effect or the level left
[36] = Activity against alternating current-induced arrhythmia in guinea pig left atrium at 10 uM; assay type: functional, Cavia porcellus, Cardiac atrium
[37] = Positive chronotropic activity in isolated guinea pig right atrium relative to control; assay type: functional, Cavia porcellus, Cardiac atrium
[38] = test system: Aorta; assay: Inhibition of calcium-induced contraction of potassium ion depolarized guinea pig aortic strips at 50 uM; assay type: functional; settings: Cavia porcellus
[39] = Negative inotropic activity assessed as decrease in developed tension in isolated guinea pig left atrium at 0.5 uM relative to control; assay type: functional, Cavia porcellus, Cardiac atrium; design: scale not given: the % may be the effect or the level left

SMILES: Cc1cc(C(=O)c2ccccc2)ccc1NC(=O)C[C@@H]1CCCN2CCCC[C@H]12
- IC50 [6]: 3.7 µM

SMILES: Cc1cc(C(=O)c2ccccc2)cc(C)c1NC(=O)C[C@@H]1CCCN2CCCC[C@H]12
- Activity [7]: 55%
- EC50 [1]: 0.76 µM
- EC50 [8]: 4.81 µM
- EC50 [9]: 3.98 µM
- Activity [10]: 70%
- inhibition at 100 µM [3]: 31%
- Activity [11]: 88%

SMILES: Cc1cc(N)cc(C)c1OC[C@@H]1CCCN2CCCC[C@H]12
- Activity [12]: 184
- EC50 [1]: 0.29 µM
- EC50 [8]: 0.97 µM
- Activity [13]: 180
- Activity [14]: 64 ms
- Activity [15]: 58 ms
- Activity [16]: 190
- Activity [17]: 70 ms
- Activity [18]: 170 ms
- Activity [2]: 38%
- Activity [19]: 33 ms
- inhibition at 100 µM [3]: 15%
- Activity [20]: 175
- Activity [21]: 194 ms
- Activity [22]: 160 ms
- Activity [23]: 66 ms
- Activity [24]: 83%
- Activity [25]: 192
- Activity [26]: 30 ms
- Activity [27]: 32 ms
- Activity [28]: 60 ms
- Activity [29]: 205 ms
- Activity [30]: 31 ms
- Activity [31]: 32 ms
- Activity [32]: 182 ms
- Activity [5]: 166%

SMILES: Nc1ccc(C(=O)NC[C@@H]2CCCN3CCCC[C@H]23)cc1
- EC50 [1]: 0.46 µM
- Activity [35]: 95%
- inhibition at 100 µM [3]: 3%
- Activity [36]: 28%
- Activity [37]: 13%

SMILES: CCCCc1oc2ccccc2c1C(=O)c1cc(I)c(OCCN(CC)CC)c(I)c1 [AMIODARONE]
- Activity [12]: 171
- Activity [13]: 164
- Activity [14]: 55 ms
- Activity [15]: 54 ms
- Activity [16]: 180
- Activity [17]: 58 ms
- Activity [35]: 30%
- Activity [18]: 161 ms
- Activity [2]: 72%
- Activity [19]: 20 ms
- inhibition at 100 µM [3]: 3%
- Activity [20]: 132
- Activity [21]: 174 ms
- Activity [22]: 161 ms
- Activity [23]: 56 ms
- Activity [25]: 187
- Activity [26]: 20 ms
- Activity [27]: 24 ms
- Activity [28]: 55 ms
- Activity [29]: 182 ms
- Activity [30]: 21 ms
- Activity [31]: 22 ms
- Activity [32]: 169 ms
- Activity [5]: 10%

SMILES: Cc1cc(C(=O)c2ccccc2)cc(C)c1OC[C@H]1CCCN2CCCC[C@H]12
- Activity [7]: 104%
- EC50 [1]: 0.16 µM
- EC50 [8]: 19.9 µM
- EC50 [9]: 6.63 µM
- inhibition at 50 µM [38]: 38%
- Activity [10]: 75%
- Activity [4]: 64%

Continued by falling EC50 [1], values first:

- EC50 [1]: 0.14 µM
SMILES: Cc1cc(NS(C)(=O)=O)cc(C)c1OC[C@H]1CCCN2CCCC[C@H]12
- Activity [2]: 34%
- inhibition at 100 µM [3]: 23%
- Activity [4]: 64%
- Activity [5]: 5%

- EC50 [1]: 0.059 µM
SMILES: CC(=O)Nc1ccc(C(=O)NC[C@@H]2CCCN3CCCC[C@H]23)cc1
- Activity [7]: 92%
- Activity [34]: 86%
- Activity [12]: 170
- EC50 [8]: 0.47 µM
- Activity [13]: 166
- Activity [14]: 70 ms
- Activity [15]: 62 ms
- Activity [16]: 175
- Activity [17]: 75 ms
- Activity [10]: 14%
- Activity [18]: 182 ms
- Activity [19]: 33 ms
- inhibition at 100 µM [3]: 3%
- Activity [20]: 165
- Activity [21]: 195 ms
- Activity [22]: 170 ms
- Activity [23]: 72 ms
- Activity [25]: 180
- Activity [26]: 34 ms
- Activity [27]: 33 ms
- Activity [28]: 65 ms
- Activity [29]: 204 ms
- Activity [30]: 32 ms
- Activity [31]: 34 ms
- Activity [32]: 190 ms

- EC50 [1]: 0.038 µM
SMILES: O=C(NC[C@@H]1CCCN2CCCC[C@H]12)c1ccc([N+](=O)[O-])cc1
- Activity [2]: 28%
- inhibition at 100 µM [3]: 18%
- Activity [4]: 74%
- Activity [5]: 18%

- EC50 [1]: 0.017 µM
SMILES: CCN(CC)CC(=O)Nc1c(C)cccc1C [LIDOCAINE]
- Activity [7]: 34%
- Activity [33]: 29%
- inhibition at 100 µM [3]: 14%
- Activity [4]: 88%

- EC50 [1]: 0.014 µM
SMILES: CCN(CC)CCNC(=O)c1ccc(N)cc1 [PROCAINAMIDE]
- Activity [7]: 11%
- inhibition at 100 µM [3]: 3%
- Activity [39]: 92%
- Activity [37]: 9%

Source: ChEMBL document CHEMBL1139835, “Novel quinolizidinyl derivatives as antiarrhythmic agents” (J Med Chem, 2007)
